Series [1] has as its system human embryonic stem-cell derived retinal pigmented epithelium (hESC-RPE). Briefly: Complement activity: C5b-9 immunostaining in human serum-treated hESC-RPE. Particulars: increasing concentrations of atorvastatin; 5% human serum; FIG. 4. The format is cell-based. The method, then: (§1) Retinal Pigmented Epithelium Cell Culture: Human embryonic stem-cell derived retinal pigmented epithelium (hESC-RPE) were cultured on Transwell inserts for at least 4 weeks in serum-free XVIVO culture medium. After 4 weeks, polygonal, pigmented monolayers of hESC-RPE were visualized by phase contrast and bright-field microscopy, indicating appropriately matured RPE cells. Drusen assay experiments were performed after the initial 4-week maturation period.
Drusen Assay: Matured hESC-RPE monolayers were incubated with 5% complement competent human serum (HS) for 48 hours to elicit Drusen formation. After the 48 hour HS incubation period, hESC-RPE monolayers (whole inserts) were fixed with 4% paraformaldehyde for 10 minutes at room temperature. Following fixation, inserts were individually removed from plates and cut out of their holders using a scalpel yielding individual membranes with hESC-RPE monolayers. Membranes were transferred to 24-well plates for storage in phosphate buffered saline with calcium and magnesium (PBS+/+). […]
Image quantification and figure preparation: Fiji (Image J) software was used for processing all the images. […] Size-Particles with an area larger than 1.5 A.U. were counted as true APOE4 expressions to minimize the likelihood of false positives in the image. […]

The test system is the same in series [2]. Kind of series: Drusen in vitro assay: APOE/APOE4 deposition induced by 5% human serum. The format is cell-based. Conditions: for minimal effective concentration: Embryonic stem cell, hESC-RPE, 24 h pre-incubation, then 48 h with 5% human serum. The method, then: as §1
Drusen Assay: Matured hESC-RPE monolayers were incubated with 5% complement competent human serum (HS) for 48 hours to elicit Drusen formation. After the 48 hour HS incubation period, hESC-RPE monolayers (whole inserts) were fixed with 4% paraformaldehyde for 10 minutes at room temperature. Following fixation, inserts were individually removed from plates and cut out of their holders using a scalpel yielding individual membranes with hESC-RPE monolayers. Membranes were transferred to 24-well plates for storage in phosphate buffered saline with calcium and magnesium (PBS+/+).
Drusen Assay with Atorvastatin Treatment: Matured hESC-RPE inserts were pre-incubated with varying concentrations of atorvastatin (ranging from […]) in both the top and bottom insert compartments for 24 hours in an incubator set at 37 °C with 5% CO2. On the following day, medium was exchanged with fresh culture medium containing atorvastatin and 5% HS and incubated for an additional 48 hours in an incubator set at 37 °C with 5% CO2. After 48 hour incubation period, inserts were fixed and processed for antibody staining.
Fixed membranes were incubated with block solution containing 1% bovine serum albumin (BSA) and 0.1% Triton X in PBS+/+ for 1 hr at room temperature. After the block incubation period, membranes were incubated overnight at 4 °C with primary antibody solution containing 1% BSA and goat anti-APOE4 antibody (1:250) and mouse anti-C5b9 antibody (1:250). On the following day, membranes were washed thrice for 10 min with PBS+/+ and incubated with secondary antibody solution containing 1% BSA and AlexaFluor donkey anti-goat 546 (1:200) and AlexaFluor donkey anti-mouse 488 (1:200) for 1 hr at room temperature in the dark. Following secondary antibody incubation period, membranes were washed thrice for 10 min with PBS+/+ and counterstained with Hoechst solution (1:1000) in PBS+/+ for 10 min at room temperature. Membranes were then transferred to microscope slides and mounted using ProLong Gold anti-fade solution and coverslips. Slides were imaged using a Leica SP8 Scanning Resonant Confocal Microscope using identical settings and laser power. At least 3 fields of view were collected per sample.
Image quantification and figure preparation: Fiji (Image J) software was used for processing all the images. All images were processed with the parameters described below: Contrast adjustment—the value of contrast for the APOE4 channel was set to 90-230 to improve the accuracy of object observation. Thresholding—the cutoff value of the threshold for the APOE4 channel was set as 100 to 255 to identify the pixels as real expressions. Size-Particles with an area larger than 1.5 A.U. were counted as true APOE4 expressions to minimize the likelihood of false positives in the image. Measurements, including deposit counts and the total area, were then exported as a .csv file for analysis. All images were taken in triplicate per treatment. Results are presented as mean±SEM and were graphed using Graph Pad PRISM v6. Statistical significance was established using one-way ANOVA tests followed by Tukey's multiple comparisons test.

Series [3] relates to eye. Conditions: applied topically in the eye; Grant, Toxicology of the Eye; cited from earlier work.
For series [4] the following is noted: cited from earlier work.

We go through 2 compounds from patent US20260355154A1, “IMPLANTS, COMPOSITIONS, AND METHODS FOR TREATING RETINAL DISEASES AND DISORDERS” (Osanni Bio, Inc., priority 2024, published 2026).

Read-outs that look alike come from different tables or passages of the source.

As to `CC(C)c1c(C(=O)Nc2ccccc2)c(-c2ccccc2)c(-c2ccc(F)cc2)n1CC[C@@H](O)C[C@@H](O)CC(=O)O` [Atorvastatin, atorvastatin], the “C5b-9 expression / C5b-9 positive puncta per field of view” value in series [1] is “reduces APOE4 and C5b-9 expression”. The minimal effective concentration in series [2] (read-out: concentration from which APOE deposition area decreased (starting at)) stood at 0.37 µM; in series [2] (read-out: concentration from which total counts of APOE deposits decreased (starting at)), 0.123 µM. Also, the “total counts of APOE deposits at higher ATV concentrations” value in series [2] (higher ATV concentrations (above 123 nM), 5% human serum, 48 h) was “nearly complete elimination”. Moreover, the “APOE deposition area at higher ATV concentrations” value in series [2] (higher ATV concentrations (above 370 nM), 5% human serum, 48 h) is reported as “nearly complete elimination”. For the same compound, in series [2] (increasing atorvastatin concentrations, 5% human serum, 48 h), the “APOE deposition (area)” value is reported as “reduced APOE deposition dose-dependently”. In addition, the “total counts of APOE deposition” value in series [2] (increasing atorvastatin concentrations, 5% human serum, 48 h, FIG. 3) is listed as “reduced the total counts of APOE deposition dose-dependently”. Further, the “expression of APOE4 per field of view” value in series [2] (increasing concentrations of atorvastatin, 5% human serum, FIG. 3) was “decreased expression of APOE4”.

As to `O=C(OCc1ccccc1)c1ccccc1` [Benzyl benzoate], in series [3], the “eye damage on topical application” value was “no damage”. For the same compound, the in vivo metabolism result in series [4] (in vivo, Handbook of Pesticide Toxicology) is “hydrolyzed to benzoic acid and benzyl alcohol”. The excretion entry in series [4] (urine, after oxidation of benzyl alcohol to benzoic acid and conjugation with glucuronic acid) is recorded as “excreted in the urine as benzoylglucuronic acid”. Also, the “excretion (minor route)” value in series [4] (urine, to a lesser extent, benzoic acid conjugated with glycine) is “excreted in the urine as hippuric acid”.
